Data taken from patent publication US10160762B2, “6-alkyl dihydropyrazolopyrimidinone compounds as PDE2 inhibitors” (Merck Sharp & Dohme Corp., priority 2015, dated 2018).

What follows are molecules tested against T1, human PDE2A1 (Homo sapiens, UniProt O00408) (assay: IMAP FP PDE assay, human PDE2A1). Conditions: Lab B; read-out: Human PDE2 Ki (nM) Lab B.
T1 construct: GST; purchased BPS Bioscience (San Diego, Calif.) 60020; host or cells: insect cells
Assay type: biochemical
Procedure: Selectivity for PDE2, as compared to other PDE families, was assessed using the IMAP® technology. Human PDE10A2 enzyme was prepared from cytosolic fractions of transiently transfected HEK cells. All other PDE's were GST Tag human enzyme expressed in insect cells and were obtained from BPS Bioscience (San Diego, Calif.): PDE1A (Cat#60010), human PDE2A1 (Cat#60020), PDE3A (Cat#60030), PDE4A1A (Cat#60040), PDE5A1 (Cat#60050), PDE6C (Cat#60060), PDE7A (Cat#60070), PDE8A1 (Cat#60080), PDE9A2 (Cat#60090), PDE11A4 (Cat#60110).
Assays for PDE 1 through 11 were performed in parallel at room temperature in 384-well microtiter plates with an incubation volume of 20.2 μL. Solutions of test compounds were prepared in DMSO and serially diluted with DMSO to yield 30 μL of each of ten solutions differing by 3-fold in concentration, at 32 serial dilutions per plate. […] A Labcyte POD 810 (Labcyte, Sunnyvale, Calif.) was used to dispense 200 nL from each well of the titration plate to make eleven copies of the assay plate for each titration, one copy for each PDE enzyme. A solution of each enzyme (dilution from aliquots, sufficient to produce 20% substrate conversion) and a separate solution of FAM-labeled cAMP or FAM-labeled cGMP from Molecular Devices (Sunnyvale, Calif., product # R7506 or cGMP#R7508), at a final concentration of 50 nM were made in the assay buffer (10 mM Tris HCl, pH 7.2, 10 mM MgCl2, 0.05% NaN3 0.01% Tween-20, and 1 mM DTT). Note that the substrate for PDE2 is 50 nM FAM cAMP containing 1000 nM of cGMP. The enzyme and the substrate were then added to the assay plates in two consecutive additions of 10 μL and then shaken to mix. The reaction was allowed to proceed at room temperature for 60 minutes. A binding solution was then made from the kit components, comprised of 80% Solution A, 20% Solution B and binding reagent at a volume of 1/600 the total binding solution. The enzymatic reaction was stopped by addition of 60 μL of the binding solution to each well of the assay plate. The plates were sealed and shaken for 10 seconds. The plates were incubated at room temperature for one hour, then the parallel and perpendicular fluorescence was measured using a Tecan Genios Pro plate reader (Tecan, Switzerland). The apparent inhibition constants for the compounds against all 11 PDE's was determined from the parallel and perpendicular fluorescent readings as described for PDE10 FP assay using the following apparent KM values for each enzyme and substrate combination: PDE1A (FAM cGMP) 70 nM, human PDE2A1 (FAM cAMP) 10,000 nM, PDE3A (FAM cAMP) 50 nM, PDE4A1A (FAM cAMP) 1500 nM, PDE5A1 (FAM cGMP) 400 nM, PDE6C (FAM cGMP) 700 nM, PDE7A (FAM cAMP) 150 nM, PDE8A1 (FAM cAMP) 50 nM, PDE9A2 (FAM cGMP) 60 nM, PDE10A2 (FAM cAMP) 150 nM, PDE11A4 (FAM cAMP) 1000 nM. The intrinsic PDE2 inhibitory activity of a compound which may be used in accordance with the present invention may be determined by these assays.

T1 sequence (O00408 1-920 isoform O00408-2): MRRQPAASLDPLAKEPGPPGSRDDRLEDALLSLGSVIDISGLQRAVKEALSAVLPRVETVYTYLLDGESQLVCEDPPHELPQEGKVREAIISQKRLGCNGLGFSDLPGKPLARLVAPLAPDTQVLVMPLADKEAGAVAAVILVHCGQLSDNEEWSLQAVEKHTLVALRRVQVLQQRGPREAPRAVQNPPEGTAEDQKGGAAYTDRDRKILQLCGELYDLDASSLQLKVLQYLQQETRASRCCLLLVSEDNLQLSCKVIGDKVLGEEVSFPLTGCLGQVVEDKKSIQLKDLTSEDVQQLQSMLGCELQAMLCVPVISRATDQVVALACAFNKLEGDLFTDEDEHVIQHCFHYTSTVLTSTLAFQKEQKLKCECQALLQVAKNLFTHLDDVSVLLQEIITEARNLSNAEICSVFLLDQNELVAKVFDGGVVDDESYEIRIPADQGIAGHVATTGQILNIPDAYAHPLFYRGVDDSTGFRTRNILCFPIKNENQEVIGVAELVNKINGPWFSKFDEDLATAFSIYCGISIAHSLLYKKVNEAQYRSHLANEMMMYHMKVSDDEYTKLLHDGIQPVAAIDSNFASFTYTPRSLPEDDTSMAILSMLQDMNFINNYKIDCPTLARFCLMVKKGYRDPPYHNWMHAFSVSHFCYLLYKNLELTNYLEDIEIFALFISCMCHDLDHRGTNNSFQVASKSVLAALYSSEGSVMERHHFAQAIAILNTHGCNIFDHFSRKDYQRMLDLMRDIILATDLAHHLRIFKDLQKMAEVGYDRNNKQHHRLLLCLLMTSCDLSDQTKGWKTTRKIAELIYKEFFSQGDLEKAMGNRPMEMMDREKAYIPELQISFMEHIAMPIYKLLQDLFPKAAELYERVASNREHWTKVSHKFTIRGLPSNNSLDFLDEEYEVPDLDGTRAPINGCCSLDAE

Structure (SMILES) | Ki [nM]
CC(c1ccc(C(F)(F)F)cc1)n1nc(C(F)F)c2c(=O)[nH]c(C3CC3)nc21 (single isomer, unassigned) [Example 191, (R)- or (S)-6-Cyclopropyl-3-(difluoromethyl)-1-(1-(4-(trifluoromethyl)phenyl)ethyl)-1,5-dihydro-4H-pyrazolo[3,4-d]pyrimidin-4-one] | 268
COCc1nc2c(c(C(F)F)nn2C(C)c2ccc(C(F)(F)F)cc2)c(=O)[nH]1 (single isomer, unassigned) [Example 187, (R)- or (S)-3-(Difluoromethyl)-6-(methoxymethyl)-1-{1-[4-(trifluoromethyl)phenyl]ethyl}-1,5-dihydro-4H-pyrazolo-[3,4-d]pyrimidin-4-one] | 231
Cc1nc2c(c(CO)nn2C(C)c2ccc(C(F)(F)F)cc2Cl)c(=O)[nH]1 (single isomer, unassigned) [Example 18, (R)- or (S)-1-(1-(2-Chloro-4-(trifluoromethyl)phenyl)ethyl)-3-(hydroxymethyl)-6-methyl-1H-pyrazolo[3,4-d]pyrimidin-4(5H)-one] | ~2850
Cc1nc2c(c(CC(C)O)nn2C(C)c2ccc(C(F)(F)F)cc2)c(=O)[nH]1 (single isomer, unassigned) [Example 243] | 808
CC(=O)NCc1nn(C(C)c2ccc(C(F)(F)F)cc2)c2nc(C)[nH]c(=O)c12 (single isomer, unassigned) [Example 277] | ~1300
CC(c1ccc(C(F)(F)F)cc1)n1nc(CO)c2c(=O)[nH]c(C3CCCO3)nc21 (single isomer, unassigned) [Example 312, (S,S)- or (R,S)- or (S,R)- or (R,R)-3-(Hydroxymethyl)-6-(tetrahydrofuran-2-yl)-1-(1-(4-(trifluoromethyl-)phenyl)ethyl)-1,5-dihydro-4H-pyrazolo[3,4-d]pyrimidin-4-one] | ~1860
Cc1nc2c(c(CO)nn2C(C)c2ccc(Cl)s2)c(=O)[nH]1 (single isomer, unassigned) [Example 153, (R)- or (S)-1-(1-(5-Chlorothiophen-2-yl)ethyl)-3-(hydroxymethyl)-6-methyl-1H-pyrazolo[3,4-d]pyrimidin-4(5H)-one] | > 2960
CC(c1ccc(C(F)(F)F)cc1)n1nc(C#N)c2c(=O)[nH]c(CC3CCCC3)nc21 (single isomer, unassigned) [Example 350] | 62
COCC(c1ccc(C(F)(F)F)cc1)n1nc(CO)c2c(=O)[nH]c(C)nc21 (single isomer, unassigned) [Example 100, (R)- or (S)-3-(Hydroxymethyl)-1-(2-methoxy-1-(4-(trifluoromethyl)phenyl)ethyl)-6-methyl-1H-pyrazolo[3,4-d]pyrimidin-4(5H)-one] | ~1670
Cc1nc2c(c(CO)nn2C(C)c2ccc(C(F)F)cc2)c(=O)[nH]1 (single isomer, unassigned) [Example 110, (R)- or (S)-1-(1-(4-(Difluoromethyl)phenyl)ethyl)-3-(hydroxymethyl)-6-methyl-1H-pyrazolo[3,4-d]pyrimidin-4(5H)-one] | 1070
Cc1nc2c(c(-c3ccn[nH]3)nn2C(C)c2ccc(C(F)(F)F)cc2)c(=O)[nH]1 (single isomer, unassigned) [Example 236] | 76
Cc1nc2c(c(CC(O)C(F)(F)F)nn2C(C)c2ccc(C(F)(F)F)cc2)c(=O)[nH]1 (single isomer, unassigned) [Example 241] | 610
Cc1nc2c(c(O)nn2[C@@H](C)c2ccc(C(F)(F)F)cc2)c(=O)[nH]1 [Example 329, (S)-3-Hydroxy-6-methyl-1-(1-(4-(trifluoromethyl)phenyl)ethyl)-1,5-dihydro-4H-pyrazolo[3,4-d]pyrimidin-4-one] | 2080
COc1cccc(Cc2nc3c(c(C#N)nn3C(C)c3ccc(C(F)(F)F)cc3)c(=O)[nH]2)c1 (single isomer, unassigned) [Example 349] | 373
Cc1nc2c(c(CC(F)(F)F)nn2C(C)c2ccc(C(F)(F)F)cc2)c(=O)[nH]1 (single isomer, unassigned) [Example 64, (R)- or (S)-6-Methyl-3-(2,2,2-trifluoroethyl)-1-(1-(4-(trifluoromethyl)phenyl)ethyl)-1H-pyrazolo[3,4-d]pyrimidin-4(5H)-one] | 274
Cc1nc2c(c(C(F)F)nn2C(C)c2ccc(C(F)(F)F)c(F)c2)c(=O)[nH]1 (single isomer, unassigned) [Example 167, (R)- or (S)-3-(Difluoromethyl)-1-(1-(3-fluoro-4-(trifluoromethyl)phenyl)ethyl)-6-methyl-1H-pyrazolo[3,4-d]pyrimidin-4(5H)-one] | 256

More lines, in order of falling Ki, values ahead:

Ki [nM] | Structure (SMILES)
61 | Cc1nc2c(c(C(F)F)nn2C(C)c2ccc(OC(F)(F)F)cc2)c(=O)[nH]1 (single isomer, unassigned) [Example 177, (R)- or (S)-3-(Difluoromethyl)-6-methyl-1-(1-(4-(trifluoromethoxy)phenyl)ethyl)-1H-pyrazolo[3,4-d]pyrimidin-4(5H)-one]
55 | Cc1nc2c(c(CC(F)(F)F)nn2C(c2ccc(C(F)(F)F)c(F)c2)C(C)(C)C)c(=O)[nH]1 (single isomer, unassigned) [Example 61, (S)- or (R)-1-(1-(3-Fluoro-4-(trifluoromethyl)phenyl)-2,2-dimethylpropyl)-6-methyl-3-(2,2,2-trifluoroethyl)-1H-pyrazolo[3,4-d]pyrimidin-4(5H)-one]
42 | CC(=O)c1nn([C@@H](C)c2ccc(C(F)(F)F)cc2)c2nc(C)[nH]c(=O)c12 [Example 322, (S)-3-Acetyl-6-methyl-1-(1-(4-(trifluoromethyl)phenyl)ethyl)-1,5-dihydro-4H-pyrazolo[3,4-d]pyrimidin-4-one]
26 | COc1cccc(Cc2nc3c(c(-c4nnco4)nn3C(C)c3ccc(C(F)(F)F)cc3)c(=O)[nH]2)c1 (single isomer, unassigned) [Example 344, (R)- or (S)-6-(3-Methoxybenzyl)-3-(1,3,4-oxadiazol-2-yl)-1-(1-(4-(trifluoromethyl)phenyl)ethyl)-1,5-dihydro-4H-pyrazolo[3,4-d] pyrimidin-4-one]
4.6 | Cc1nc2c(c(CF)nn2C(c2ccc(OC(F)(F)F)cc2)C2CC2)c(=O)[nH]1 (single isomer, unassigned) [Example 225, (S)- or (R)-1-(Cyclopropyl(4-(trifluoromethoxy)phenyl)methyl)-3-(fluoromethyl)-6-methyl-1,5-dihydro-4H-pyrazolo[3,4-d]pyrimidin-4-one]
4.5 | Cc1nc2c(c(CO)nn2C(C)c2ccc(C(F)(F)C(F)(F)F)cc2)c(=O)[nH]1 (single isomer, unassigned) [Example 99, (S)- or (R)-3-(Hydroxymethyl)-6-methyl-1-(1-(4-(perfluoroethyl)phenyl)ethyl)-1H-pyrazolo[3,4-d]pyrimidin-4(5H)-one]
3.2 | Cc1nc2c(c(CO)nn2C(C)c2ccc(C(F)F)cc2)c(=O)[nH]1 (single isomer, unassigned) [Example 111, (S)- or (R)-1-(1-(4-(Difluoromethyl)phenyl)ethyl)-3-(hydroxymethyl)-6-methyl-1H-pyrazolo[3,4-d]pyrimidin-4(5H)-one]
0.88 | Cc1nc2c(c(-c3nnco3)nn2C(C)c2ccc(C(F)(F)F)cc2)c(=O)[nH]1 (single isomer, unassigned) [Example 263]
0.72 | Cc1nc2c(c(C(F)F)nn2C(C)c2ccc(OC(F)(F)F)cc2)c(=O)[nH]1 (single isomer, unassigned) [Example 178, (S)- or (R)-3-(Difluoromethyl)-6-methyl-1-(1-(4-(trifluoromethoxy)phenyl)ethyl)-1H-pyrazolo[3,4-d]pyrimidin-4(5H)-one]
